This is an account of results in patent US11773087B2, “GLP-1R receptor agonist compound and use thereof” (SUZHOU VINCENTAGE PHARMA CO., LTD, priority 2020, dated 2023).

Read-outs that look alike come from different tables or passages of the source.

Data set [1] is described as follows: Pharmacokinetic evaluation in rats (gavage). It is filed as in vivo. The note with it: rat, 10 mg/kg single oral gavage, plasma. As to the method: Test Embodiment 2: Pharmacokinetic Evaluation in Rats
The drug concentrations in the plasma of rats were tested at different times after the administration of the compounds by gavage using rats as test animals. The pharmacokinetic behavior of the compounds of the present disclosure in rats was studied and their pharmacokinetic characteristics were evaluated. In each group of embodiments, 3 rats with similar body weight were selected and administered orally at a dose of 10 mg/kg for a single administration. Blood was collected from animals at 15 min, 30 min, 1 h, 2 h, 4 h, 6 h, 8 h, 12 h, 24 h time points after administration. The LC-MS/MS analysis method was used to detect the content of the compound in plasma, and the lower limit of quantification of the method was 20 ng/mL. Concentration data in plasma was counted using the metabolic kinetic data analysis software WinNonlin 7.0, and the pharmacokinetic parameters were calculated using the non-compartmental analysis (NCA), as shown in Table 2 below.
Drug configuration: A certain amount of drug was taken, added with 2% Klucel LF+0.1% Tween 80 aqueous solution to prepare a clear solution or a uniform suspension.
Administration: Rats were administered by gavage after overnight fasting at a dose of 10 mg/kg.
Operation: Rats were administered by gavage, and blood was collected from the tail vein before administration and 15 min, 30 min, 1 h, 2 h, 4 h, 6 h, 8 h, 12 h, 24 h after administration, placed in heparinized sample tubes, centrifuged at 4° C., 3500 rpm for 10 min to separate plasma, stored at −20° C., and fed 2 hours after administration.
Determination of the content of test compounds in rat plasma after drug administration by gavage: 50 μL of plasma samples were thawed at room temperature, added with 130 μL of internal standard working solution (1000 ng/mL, acetonitrile, tolbutamide), vortexed for about 1 min and then centrifuged for 10 min at 4° C. and 13000 rpm. 50 μL of supernatant was mixed with 100 μL of 50% acetonitrile in water, and then the sample was injected for LC/MS/MS analysis.

Data set [2] in a line: Pharmacokinetic evaluation of cynomolgus monkey (IV and oral). It is filed as in vivo, cynomolgus monkeys. The note with it: for F: 50 mg/kg PO vs 1 mg/kg IV, oral bioavailability; for Cmax / Tmax / clearance / half-life / AUC(0-t) / concentration at 24 h: male, plasma; for AUC(0-t): read-out: AUC0-24 h; for concentration at 24 h: read-out: C24 h. As to the method:
Test Embodiment 3: Pharmacokinetic Evaluation of Cynomolgus Monkey
The drug concentrations in the plasma of cynomolgus monkeys were tested at different times after intravenous injection and oral administration of the compounds using cynomolgus monkeys as test animals. The pharmacokinetic behavior of the compounds of the present disclosure in cynomolgus monkeys was studied and their pharmacokinetic characteristics were evaluated. In each group of embodiments, 2 cynomolgus monkeys with similar body weight were selected, administered at a dose of 1 mg/kg by intravenous injection and at a dose of 50 mg/kg by oral administration for a single administration.
Age of cynomolgus monkeys at the time of administration: about 2-4 years old; body weight: 3.0-4.6 kg at the beginning of administration; 4 monkeys; sex: male.
Intravenous group: The final concentration of 0.5 mg/mL was prepared for intravenous administration, and the preparation solvent was 5% DMSO+45% PEG400+50% water, and the preparation was in a clarified solution.
Oral group: The final concentration of 10 mg/mL was prepared for oral administration, and the preparation solvent was 5% DMSO+45% PEG400+50% water, and the preparation was in homogeneous suspension.
Blood was collected from animals at 5 min, 15 min, 30 min, 1 h, 2 h, 4 h, 7 h, 12 h, 24 h time points after administration. The LC-MS/MS analysis method was used to detect the content of the compound in plasma, and the lower limit of quantification of the method was 20 ng/mL. Concentration data in plasma was counted using the metabolic kinetic data analysis software WinNonlin 7.0, and the pharmacokinetic parameters were calculated using the non-compartmental analysis (NCA), as shown in Table 3 below.
Determination of the content of test compounds in the plasma of cynomolgus monkeys after drug administration: After blood samples were collected, placed in a marked ice-bath centrifuge tube, and rapidly centrifuged to separate the plasma. Centrifugation conditions: 4000 rpm, 10 minutes, 4° C., and plasma was stored at −40° C. or less for testing.

In data set [3] the target is T1, human GLP-1R receptor (Homo sapiens, UniProt P43220).
T1 construct: expressed in transfected cells; host or cells: 'GLP-1R cells' (frozen vial)
T1 sequence (P43220 24-463): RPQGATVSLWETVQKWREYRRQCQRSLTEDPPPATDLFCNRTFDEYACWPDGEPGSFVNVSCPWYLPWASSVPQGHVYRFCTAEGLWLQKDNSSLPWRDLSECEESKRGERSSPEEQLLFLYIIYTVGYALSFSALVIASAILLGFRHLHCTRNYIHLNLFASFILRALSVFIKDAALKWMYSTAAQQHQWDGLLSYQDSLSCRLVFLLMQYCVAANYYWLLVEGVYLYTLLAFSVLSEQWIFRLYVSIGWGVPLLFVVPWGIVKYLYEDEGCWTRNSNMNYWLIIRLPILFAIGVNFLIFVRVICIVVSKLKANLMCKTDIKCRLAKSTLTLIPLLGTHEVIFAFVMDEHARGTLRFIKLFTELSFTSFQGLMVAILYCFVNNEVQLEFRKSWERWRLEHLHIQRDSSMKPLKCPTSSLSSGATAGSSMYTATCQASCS
The data set can be described thus: GLP-1R cAMP assay (HTRF, HEK293 cells expressing GLP-1R). In kind it is cell-based. The note with it: agonistic activity, GLP-1R HEK293 cells. As to the method: Test Embodiment 1: Activity Test of GLP-1R cAMP Assay
This experiment aims to verify the agonistic activity of the compound of the present disclosure on human GLP-1R receptor.
Compounds were diluted 4-fold starting at 100 μM from DMSO using Bravo for a total of 10 points.
The reference compound polypeptide GLP-1 (7-37) was diluted 4-fold starting from 500 nM in DMSO using Bravo for a total of 10 points.
b) Preparation of Cell Suspension: • 1) 1 vial of GLP-1R cells was quickly thawed in a 37° C. water bath. • 2) The suspension of the cells was transferred to 10 mL of HBSS in a 15 mL conical tube. • 3) The cells were centrifuged at 1000 rpm for 5 min at room temperature to precipitate the cells. • 4) The supernatant was gently aspirated, and being careful not to aspirate the cells. • 5) The cells were relaxed by flicking the precipitation, and then the cell precipitation was re-suspended in 10 mL of HBSS. A sterile pipette was used to move fluid up and down to remove clumps. • 6) The concentration of cells was counted and the cell viability on Vi-cell was determined. • 7) GLP-1R cells were re-suspended in the test buffer at a concentration of 2.0×E5/mL cells. • 8) 10 μL of GLP-1R cell was transferred to OptiPlate-384 well plate.
c) Transfer of Compound: • 1) 100 nL of compound was transferred to OptiPlate-384 plate using Echo Transfer. • 2) The plate was rotated at 1000 rpm for 5 seconds.
d) HTRF cAMP Analysis of Agonists: • 1) The plate was incubated at room temperature for 30 minutes before adding detection reagents. • 2) An electric multi-channel pipette was used to add 10 μL of detection reagents respectively. • 3) The 384 well plate was covered with TopSeal-A membrane and incubated for 60 min at room temperature.
TopSeal-A was unloaded and read on EnVision.
A general note: Cyclic AMP is a second messenger, typically raised through Gs and lowered through Gi signalling.

For data set [4] the following is noted: obese patients, cited from earlier work.

Turning to `N#Cc1ccc(COc2cccc(C3CCN(Cc4nc5ccc(C(=O)O)cc5n4C[C@@H]4CCO4)CC3)n2)c(F)c1` [PF-06882961, reference compound], in data set [1], the AUC(0-inf) (as a rule, total exposure, with the tail of the curve extrapolated) was 179 ng·h/mL; the maximum concentration (Cmax) (usually the peak of the concentration-time curve) stood at 55 ng/mL; the Tmax (as a rule, the time from dosing to the highest level) was found to be 0.42 h; the half-life – broadly, how long it takes for the measured level to halve – was 6.88 h. Moreover, in data set [2], the F is on record as 8.0%. In addition, in data set [2] (1 mg/kg IV), the peak level (Cmax) was 2220 ng/mL, the Tmax came to 0.083 h, the clearance is 15.9 mL/min/kg and the half-life is 1.14 h. The AUC(0-t) in data set [2] (1 mg/kg IV) came out at 1070 ng·h/mL. In data set [2] (50 mg/kg PO), the Cmax is 2050 ng/mL, the Tmax is 1.75 h, the half-life is 10.9 h and the concentration at 24 h amounted to 41.4 ng/mL. Moreover, the AUC(0-t) in data set [2] (50 mg/kg PO) was determined as 4330 ng·h/mL.

Regarding `O=C(O)c1ccc2nc(CN3CCC(c4ccccc4OCc4ccc(Cl)cc4F)CC3)n(C[C@@H]3CCO3)c2c1` [Compound 3], the EC50 (as a rule, the concentration that produces a half-maximal response) in data set [3] is 900 pM. In data set [1], the AUC(0-inf) turned out to be 1030 ng·h/mL, the highest level (Cmax) was 1160 ng/mL, the Tmax worked out at 0.25 h and the half-life is 2.58 h. In addition, the F in data set [2] was 51.2%. Moreover, in data set [2] (1 mg/kg IV), the Cmax was 1590 ng/mL, the Tmax came to 0.083 h, the clearance was 19.2 mL/min/kg and the half-life was 0.98 h. The AUC(0-t) in data set [2] (1 mg/kg IV) was 898 ng·h/mL. Besides, in data set [2] (50 mg/kg PO), the peak concentration (Cmax) turned out to be 2440 ng/mL, the Tmax came to 2.5 h, the half-life was 22.6 h and the concentration at 24 h was determined as 597 ng/mL. Besides, in data set [2] (50 mg/kg PO), the AUC(0-t) was 23000 ng·h/mL.

For the compound semaglutide, in data set [4] (2.4 mg group, 68 weeks), the “patients with ≥5% weight loss” value is 86.4%. Further, the “decrease of mean baseline body weight” value in data set [4] (2.4 mg, 68 weeks of treatment, baseline 105.3 kg) was 14.9%.
